In PubChem BioAssay AID330 (DTP/NCI, 2004):
Where “and” joins values, the source holds several entries; their conditions need not be identical. Equal entries are not always repeated. Inconclusive results and toxic doses are left out.

Test system: P388 leukemia ip, CD2F1 mice, survival T/C
Assay: NCI In Vivo Anticancer Drug Screen. Data for tumor model P388 Leukemia (intraperitoneal) in CD2F1 (CDF1) mice
Conditions: endpoint: median survival time, higher = longer survival
How it was run: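 Mice carrying the transplanted tumor received test compound or vehicle. Survival was recorded in each group, and the value is the treated-group measurement divided by that of the vehicle-treated control group.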

[1] = dose: 2.5 mg/kg/injection, schedule: Q04DX003 (ip), vehicle: saline
[2] = dose: 5.0 mg/kg/injection, schedule: Q04DX003 (ip), vehicle: saline
[3] = dose: 50.0 mg/kg/injection, schedule: Q01DX005 (ip), vehicle: saline with Tween-80
[4] = dose: 100.0 mg/kg/injection, schedule: Q01DX005 (ip), vehicle: saline with Tween-80
[5] = dose: 200.0 mg/kg/injection, schedule: Q01DX005 (ip), vehicle: saline with Tween-80
[6] = dose: 60.0 mg/kg/injection, schedule: Q01DX005 (ip), vehicle: saline with Tween-80
[7] = dose: 120.0 mg/kg/injection, schedule: Q01DX005 (ip), vehicle: saline with Tween-80
[8] = dose: 100.0 mg/kg/injection, schedule: Q01DX009 (ip), vehicle: saline with Tween-80

## c1cc2c3c(cccc3c1)NC(c1ccc3c(c1)OCO3)N2
dose: 50.0 mg/kg/injection, schedule: Q01DX005 (ip), vehicle: Klucel (hydroxypropylcellulose) (HPC)
  T/C: 100 % of control
dose: 100.0 mg/kg/injection, schedule: Q01DX005 (ip), vehicle: Klucel (hydroxypropylcellulose) (HPC)
  T/C: 100 % of control
dose: 200.0 mg/kg/injection, schedule: Q01DX005 (ip), vehicle: Klucel (hydroxypropylcellulose) (HPC)
  T/C: 95 % of control

## CCCOc1ccccc1NC(=O)CN1CCCC1
dose: 60.0 mg/kg/injection, schedule: Q01DX005 (ip), vehicle: saline
  T/C: 104 % of control
dose: 120.0 mg/kg/injection, schedule: Q01DX005 (ip), vehicle: saline
  T/C: 106 % of control
dose: 240.0 mg/kg/injection, schedule: Q01DX005 (ip), vehicle: saline
  T/C: 116 % of control

## Cc1c2cc[n+](C)cc2c(C)c2c1[nH]c1ccc(O)c(-[n+]3ccccc3)c12
[1]
  T/C: 113 % of control
[2]
  T/C: 111 % of control

## COc1cc(N(CCCl)CCCl)c(OC)cc1/C=N\Nc1nncn1N
dose: 0.25 mg/kg/injection, schedule: Q01DX009 (ip), vehicle: saline
  T/C: 95 % of control
dose: 0.5 mg/kg/injection, schedule: Q01DX009 (ip), vehicle: saline
  T/C: 104 % of control
dose: 0.63 mg/kg/injection, schedule: Q04DX003 (ip), vehicle: saline
  T/C: 100 % of control
dose: 1.25 mg/kg/injection, schedule: Q01DX009 (ip), vehicle: saline
  T/C: 154 % of control
dose: 1.25 mg/kg/injection, schedule: Q04DX003 (ip), vehicle: saline
  T/C: 100 % of control
dose: 2.5 mg/kg/injection, schedule: Q01DX009 (ip), vehicle: saline
  T/C: 154 % of control
[1]
  T/C: 107 % of control
dose: 5.0 mg/kg/injection, schedule: Q01DX009 (ip), vehicle: saline
  T/C: 186 % of control
[2]
  T/C: 123 % of control

## CC1CC=C2C=C(Cl)C=CC2(C)C1C (stereo unspecified)
[3]
  T/C: 98 % of control
[4]
  T/C: 96 % of control
[5]
  T/C: 91 % of control

## CC(C)(Cc1nocc1C(C)(C)CC#N)c1cc(CC(C)(C)C2(C)OCCO2)no1
[6]
  T/C: 95 % of control
[7]
  T/C: 88 % of control

## CC1=CSCC(=O)N1
[8]
  T/C: 104 % of control
dose: 200.0 mg/kg/injection, schedule: Q01DX009 (ip), vehicle: saline with Tween-80
  T/C: 95 % of control

## O=C1Nc2ccccc2/C1=c1/sc2nc3ccccc3n2c1=O
dose: 200.0 mg/kg/injection, schedule: Q01DX001 (ip), vehicle: Klucel (hydroxypropylcellulose) (HPC)
  T/C: 89 % of control
dose: 400.0 mg/kg/injection, schedule: Q01DX001 (ip), vehicle: Klucel (hydroxypropylcellulose) (HPC)
  T/C: 89 % of control

## Cc1c(C)c(C)c2c(c1C)C(=O)c1c3c(c4c(c1C2=O)CCCC4)CCCC3
dose: 25.0 mg/kg/injection, schedule: Q01DX009 (ip), vehicle: saline with Tween-80
  T/C: 108 % of control
dose: 50.0 mg/kg/injection, schedule: Q01DX009 (ip), vehicle: saline with Tween-80
  T/C: 103 % of control
[8]
  T/C: 99 % of control

## S=c1cc(-c2ccccc2)c(-c2ccccc2)c(-c2ccccc2)s1
dose: 100.0 mg/kg/injection, schedule: Q01DX001 (ip), vehicle: saline with Tween-80
  T/C: 91 % of control
dose: 200.0 mg/kg/injection, schedule: Q01DX001 (ip), vehicle: saline with Tween-80
  T/C: 94 % of control

## NC(=O)N/N=C(/Cc1nc2ccccc2nc1C/C(=N/NC(N)=O)c1cccc2ccccc12)c1cccc2ccccc12
[6]
  T/C: 99 % of control and 95 % of control
[7]
  T/C: 100 % of control
dose: 240.0 mg/kg/injection, schedule: Q01DX005 (ip), vehicle: saline with Tween-80
  T/C: 100 % of control and 91 % of control

## COc1cccc(C(=O)O)c1OC
dose: 100.0 mg/kg/injection, schedule: Q04DX003 (ip), vehicle: saline with Tween-80
  T/C: 100 % of control
dose: 200.0 mg/kg/injection, schedule: Q04DX003 (ip), vehicle: saline with Tween-80
  T/C: 100 % of control
dose: 400.0 mg/kg/injection, schedule: Q04DX003 (ip), vehicle: saline with Tween-80
  T/C: 90 % of control

## Cc1sc(C)c2c1C[Se]Cc1c(C)sc(C)c1C[Se]C2
dose: 400.0 mg/kg/injection, schedule: Q01DX001 (ip), vehicle: saline with Tween-80
  T/C: 87 % of control

## O=C1C2CCc3cnn(-c4ccccc4)c3C2C(=O)N1c1ccccc1 (stereo unspecified)
[3]
  T/C: 101 % of control
[4]
  T/C: 99 % of control
[5]
  T/C: 94 % of control
